According to ChEMBL document CHEMBL1158701, “Sesquiterpene phenylpropanoids from Ferula fukanensis and their nitric oxide production inhibitory effects” (J Nat Prod, 2005):
Calls of active or inactive are those of the source. The calls are words filed in the database; no cut-off is given here.

Each molecule was assayed on RAW264.7 (assay: Inhibition of LPS/IFNgamma -induced NO production in mouse RAW264.7 cells at 30 ug/ml after 16 hrs). Conditions: not given.
Type: functional, cell-based

Structure (SMILES) | Activity
CC(C)=CCC/C(C)=C/CC[C@]1(C)OC(=O)[C@H](C(=O)c2ccc(O)cc2O)[C@H]1C (relative stereo) | inactive
COc1ccc(C(=O)[C@H]2C(=O)O[C@](C)(CC/C=C(\C)CCC=C(C)C)[C@@H]2C)c(O)c1 (relative stereo) | inactive

These molecules were tested on RAW264.7 (assay: Inhibition of LPS/IFNgamma -induced NO production in mouse RAW264.7 cells after 16 hrs). Conditions: RAW264.7, 16 h.
Type: functional, cell-based

IC50 [µM] | Structure (SMILES)
27.8 | CC(C)=CC(=O)/C=C(/C)CCC[C@@]1(C)OC(=O)[C@H](C(=O)c2ccc(O)cc2O)[C@H]1C (relative stereo) [FUKANEDONE D]
76.2 | COc1ccc(C(=O)[C@H]2C(=O)O[C@](C)(CC/C=C(\C)Cc3cc(C)co3)[C@@H]2C)c(O)c1 (relative stereo) [FUKANEDONE E]

The next lines start with the molecule.

Structure (SMILES) | IC50 [µM]
CC(C)=CC(=O)/C=C(\C)CCC[C@@]1(C)OC(=O)[C@H](C(=O)c2ccc(O)cc2O)[C@H]1C (relative stereo) [FUKANEDONE C] | 6.7
CCCCOC(=O)C(=O)c1ccc(O)cc1O [FUKANEKETOESTER A] | 113
